Data taken from EP2992885A2, “METHOD FOR INHIBITING A LIVER DISEASE” (priority 2014, dated 2016).
Structures can show the parent of a compound that is named as a salt.

How the values were obtained:
ROCK II = ROCK II expression in HepG2 cells; type: cell-based
Experimental: HepG2 cells were treated with various concentrations of drugs for 24 hours. Reactions were terminated by washing twice with cold PBS, and the cells were then harvested. Proteins in the whole-cell lysate were homogenized in an ice-cold lysis buffer and a protease inhibitor (Sigma-Aldrich, St. Louis, MO, U.S.A.). The homogenate was centrifuged at 90, 000 g for 15 minutes at 4°C, and supernatant was recovered as the total cellular protein. Cytosolic and membrane fractions of HepG2 cells were prepared using a CNM (Cytosol Nuclear Membrane) compartment protein extraction kit (BioChain Institute Inc., Hayward, CA, U.S.A.) according to the manufacturer's instructions. All of the fractionated protein solutions were stored at -80°C until analysis. To measure the expression levels of proteins by drugs, the total cell protein was extracted after incubation with treatments for 24 hours and then Western blotting analysis was performed as described previously.
To confirm that RhoA antagonist C3 exoenzyme (5 µg/ml) and ROCK antagonist Y27632 (10 µM), dissolved in 10% popyleneglycol, can inactivate_the expression of ROCK II, they were added to cells in culture for 24 hours, respectively, to measure the expression of ROCK II and related expressions of PPARγ and ABCA-1 in HepG2 cells.

mice fed with HFD = assay: HFD-fed mice, 8 weeks: serum and liver lipid levels, body weight, food intake; type: in vivo, C57BL/6J male mice; set-up: TG / Tot. chol. / HDL chol. / LDL chol.: unit not given here; conditions: for HDL chol. / LDL chol. / TG / Tot. chol.: Table 2, HFD mice, unit not given in Table 2 (Table 1 gives mg/dl); for HDL (HDL cholesterol) / LDL (LDL cholesterol) / TG of liver (Triacylglycerol) / TG in serum (Triacylglycerol): HFD for 8 weeks; for TG in serum (Triacylglycerol): means±SE
Experimental: (§1) During the 2 month experiments, mice fasted for one night before the experiment was changed from a standard diet (STD) to a HFD and then the mice were randomly divided into 5 groups, including 2 control and 3 treatment groups. Six mice were used in each group. The control mice received either STD or HFD and the protection group was fed HFD with KMUP-1 HCl (2.5 and 5 mg/kg/day), simvastatin (5 mg/kg/day) or a target drug administered by gavage to assess weight gain followed by biochemical analysis. Liver from the protection group supplemented with KMUP-1 HCl (1 mg/kg/day) were used to determine the HMG CoA reductase expression.
Within 2 months, the 3 day food intake average for each animal was measured. The weight gain and plasma lipid levels of each group were determined and compared to the non-treatment control group. […] Agents used in the assays were obtained from Merck & Co. (Kenilworth, NJ, U.S.A.). Triglyceride (TG), total cholesterol, HDL cholesterol and LDL cholesterol in mouse serum were measured by methods used in the clinic. To measure the hepatic TG, isolated liver were cut into small chips.

HMG CoA reductase = assay: HFD-induced HMG CoA reductase expression in liver, 8 weeks; type: in vivo, mice; conditions: HFD 8 weeks; KMUP-1 HCl 2.5, 5 mg/kg; simvastatin 5 mg/kg, by gavage
Experimental: as §1, with “Liver from the protection group supplemented with KMUP-1 HCl (1 mg/kg/day) were used to determine the HMG CoA reductase expression.” left out
The obtained protein extract was boiled to a ratio of 4:1 with a sample buffer (Tris 100 mM, pH 6.8, glycerol 20%, SDS 4% and bromophenol blue 0.2%).
The blot was then incubated with anti-mouse or anti-goat IgG linked to alkaline phosphatase (1:1000) for 1 hour.

Compound: 8-(p-chloro-phenylthio)guanosine-3,5-monophosphorothioate [Rp-8-pCPT-cGMPS]
- ROCK II expression (Fig. 24B) (ROCK II; HepG2, 10µM cGMP antagonist alone): increased

Compound: Cn1c(=O)c2c(ncn2CCN2CCN(c3ccccc3Cl)CC2)n(C)c1=O [KMUP-1 HCl, 7-[2-[4-(2-chlorophenyl)piperazinyl]ethyl]-1,3-dimethylxanthine HCl complex]
- HDL chol. (mice fed with HFD; Dose 2.5 mg/kg): 103.6± 4.2
- LDL chol. (mice fed with HFD; Dose 2.5 mg/kg): 14.2± 1.4
- TG (mice fed with HFD; Dose 2.5 mg/kg): 74.5± 5.1
- Tot. chol. (mice fed with HFD; Dose 2.5 mg/kg): 133± 5.1
- HDL chol. (mice fed with HFD; Dose 5 mg/kg): 118.3± 5.7
- LDL chol. (mice fed with HFD; Dose 5 mg/kg): 14.2± 2.2
- TG (mice fed with HFD; Dose 5 mg/kg): 72.67± 4.7
- Tot. chol. (mice fed with HFD; Dose 5 mg/kg): 125.5± 9.8
- HFD-induced downregulation of HMG CoA reductase expression in liver (HMG CoA reductase): significantly reversed

Compound: Cn1c(=O)c2c(ncn2CCN2CCN(c3ccccc3Cl)CC2)n(C)c1=O [KMUP-1, 7-[2-[4-(2-chlorophenyl)piperazinyl]ethyl]-1,3-dimethyl xanthine]
- HDL (HDL cholesterol) (mice fed with HFD; 2.5mg/kg by gavage): 103.6 ± 4.2 mg/dL
- LDL (LDL cholesterol) (mice fed with HFD; 2.5mg/kg by gavage): 14.2 ± 1.4 mg/dL
- TG of liver (Triacylglycerol) (mice fed with HFD; 2.5mg/kg by gavage): 28.4 ± 3.6 mg/dL
- TG in serum (Triacylglycerol) (mice fed with HFD; 2.5mg/kg by gavage): 74.5 ± 5.1 mg/dL
- HDL (HDL cholesterol) (mice fed with HFD; 5mg/kg by gavage): 118.3 ± 5.7 mg/dL
- LDL (LDL cholesterol) (mice fed with HFD; 5mg/kg by gavage): 14.2 ± 2.2 mg/dL
- TG of liver (Triacylglycerol) (mice fed with HFD; 5mg/kg by gavage): 26.12 ± 3.1 mg/dL
- TG in serum (Triacylglycerol) (mice fed with HFD; 5mg/kg by gavage): 72.7 ± 4.7 mg/dL

Compound: C[C@@H](N)[C@H]1CC[C@H](C(=O)Nc2ccncc2)CC1 [Y27632]
- ROCK II expression (Fig. 24A) (ROCK II; HepG2, 24 hours, C3 exoenzyme 5 µg/ml, Y27632 10 µM): reduced

Compound: CCC(C)(C)C(=O)O[C@H]1C[C@@H](C)C=C2C=C[C@H](C)[C@H](CC[C@@H]3C[C@@H](O)CC(=O)O3)[C@H]21 [simvastatin, reference compound]
- HDL (HDL cholesterol) (mice fed with HFD; 5mg/kg by gavage): 103.2 ± 2.5 mg/dL
- LDL (LDL cholesterol) (mice fed with HFD; 5mg/kg by gavage): 15.3 ± 1.3 mg/dL
- TG of liver (Triacylglycerol) (mice fed with HFD; 5mg/kg by gavage): 35.5±2.** mg/dl
- TG in serum (Triacylglycerol) (mice fed with HFD; 5mg/kg by gavage): 82.7 ± 6.3 mg/dL
